The source of these data is patent publication US9204640B2, “2-acyloxy-pyrrolin-4-ones” (BAYER INTELLECTUAL PROPERTY GMBH, priority 2011, dated 2015).

Holding throughout (assay type): in vivo
One test has as its system Phaedon cochleariae. Put plainly: Phaedon test (PHAECO spray treatment). Conditions: application rate 500 g/ha, after 7 days, Chinese cabbage leaf discs. On the procedure:
Phaedon Test ([…] Spray Treatment) [table] To produce a suitable preparation of active compound, 1 part by weight of active compound is mixed with the stated amount of solvent and emulsifier, and the concentrate is diluted with emulsifier-containing water to the desired concentration. Discs of Chinese cabbage (Brassica pekinensis) are sprayed with an active compound preparation of the desired concentration and, after drying, populated with larvae of the mustard beetle (Phaedon cochleariae). After 7 days, the effect in % is determined 100% means that all beetle larvae have been killed; 0% means that none of the beetle larvae have been killed. Phaedon Test ([…] Spray Treatment) To produce a suitable preparation of active compound, 1 part by weight of active compound is mixed with the stated amount of solvent and emulsifier, and the concentrate is diluted with emulsifier-containing water to the desired concentration. Discs of Chinese cabbage (Brassica pekinensis) are sprayed with an active compound preparation of the desired concentration and, after drying, populated with larvae of the mustard beetle (Phaedon cochleariae). After the desired period of time, the activity in % is determined. 100% means that all beetle larvae have been killed; 0% means that none of the beetle larvae have been killed.

Another test deals with Spodoptera frugiperda. Put plainly: Spodoptera frugiperda test (SPODFR spray treatment). Here is the method:
Spodoptera Frugiperda Test (SPODFR Spray Treatment) [table] To produce a suitable preparation of active compound, 1 part by weight of active compound is mixed with the stated amount of solvent and emulsifier, and the concentrate is diluted with emulsifier-containing water to the desired concentration. Discs of corn leaves (Zea mays) are sprayed with an active compound preparation of the desired concentration and, after drying, populated with caterpillars of the armyworm (Spodoptera frugiperda). After 7 days, the effect in % is determined. 100% means that all caterpillars have been killed; 0% means that none of the caterpillars have been killed. Spodoptera Frugiperda Test (SPODFR Spray Treatment) To produce a suitable preparation of active compound, 1 part by weight of active compound is mixed with the stated amount of solvent and emulsifier, and the concentrate is diluted with emulsifier-containing water to the desired concentration. Discs of corn leaves (Zea mays) are sprayed with an active compound preparation of the desired concentration and, after drying, populated with caterpillars of the armyworm (Spodoptera frugiperda). After the desired period of time, the activity in % is determined. 100% means that all caterpillars have been killed; 0% means that none of the caterpillars have been killed.

The subject of the next test is Myzus persicae. Put plainly: Myzus test (MYZUPE spray treatment). Conditions: application rate 500 g/ha, after 5 days, Chinese cabbage leaf discs. The method, boiled down:
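Chinese cabbage leaf discs carrying all stages of green peach aphid sprayed with compound diluted in emulsifier-containing water to the desired concentration. Mortality scored as % after 5 days, where 100% means all aphids dead and 0% none.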

A further test deals with Tetranychus urticae. The experiment in a line: Tetranychus test (TETRUR spray treatment; OP-resistant in Example 10). On the procedure:
Tetranychus Test (TETRUR Spray Treatment)
To produce a suitable preparation of active compound, 1 part by weight of active compound is mixed with the stated amount of solvent and emulsifier, and the concentrate is diluted with emulsifier-containing water to the desired concentration. Discs of bean leaves (Phaseolus vulgaris) which are infested by all stages of the greenhouse red spider mite (Tetranychus urticae) are sprayed with an active compound preparation of the desired concentration.
After 5 days, the effect in % is determined. 100% means that all of the spider mites have been killed; 0% means that none of the spider mites have been killed.
Tetranychus Test, OP-Resistant (TETRUR Spray Treatment)
To produce a suitable preparation of active compound, 1 part by weight of active compound is mixed with the stated amount of solvent and emulsifier, and the concentrate is diluted with emulsifier-containing water to the desired concentration.
Discs of bean leaves (Phaseolus vulgaris) which are infested by all stages of the greenhouse red spider mite (Tetranychus urticae) are sprayed with an active compound preparation of the desired concentration.
After the desired period of time, the activity in % is determined. 100% means that all of the spider mites have been killed; 0% means that none of the spider mites have been killed.

Another test has as its system Boophilus microplus. The experiment in a line: Boophilus microplus test (BOOPMI injection). Particulars: 20 μg/animal, after 7 days. Here is the method:
Boophilus Microplus Test (BOOPMI Injection) [table] To prepare an appropriate active compound formulation, 10 mg of active compound are mixed with 0.5 ml of solvent and the concentrate is diluted with solvent to the desired concentration. The solution of active compound is injected into the abdomen (Boophilus microplus), and the animals are transferred into dishes and kept in a climatized room. The activity is assessed by deposition of fertile eggs. After 7 days, the effect in % is determined. 100% means that none of the ticks has laid any fertile eggs.

For a further test, the system named is Lucilia cuprina larvae. The experiment in a line: Lucilia cuprina test (LUCICU). Conditions: 100 ppm, after 2 days. Here is the method:
Lucilia Cuprina Test (LUCICU) [table] To prepare an appropriate active compound formulation, 10 mg of active compound are mixed with 0.5 ml of dimethyl sulfoxide and the concentrate is diluted with water to the desired concentration. Vessels containing horse meat treated with the active compound preparation of the desired concentration are populated with about 20 Lucilia cuprina larvae. After 2 days, the kill in % is determined. 100% means that all of the larvae have been killed; 0% means that none of the larvae have been killed.

The test system of another test is Liriomyza trifolii. The experiment in a line: Liriomyza trifolii spray test (LIRITR). Particulars: 20 g/ha; 7dat. Here is the method: Liriomyza Trifolii-Spray Test ([…]) To produce a suitable preparation of active compound, 1 part by weight of active compound is mixed with the stated amount of solvent and emulsifier, and the concentrate is diluted with emulsifier-containing water to the desired concentration. If the addition of ammonium salts or/and penetrants is required, these are in each case added in a concentration of 1000 ppm to the solution of the preparations. Discs of bean leaves (Phaseolus vulgaris) which are infested by all stages of the leaf-mining fly (Liriomyza trifolii) are sprayed with an active compound preparation of the desired concentration. After the desired period of time, the activity in % is determined. 100% means that all of the leaf-mining flies have been killed; 0% means that none of the leaf-mining flies have been killed.

For another test, the system named is Bemisia tabaci. Put plainly: Bemisia tabaci spray test (BEMITA). Particulars: 20 g/ha; 7dat. On the procedure:
Bemisia Tabaci-Spray Test ([…]) To produce a suitable preparation of active compound, 1 part by weight of active compound is mixed with the stated amount of solvent and emulsifier, and the concentrate is diluted with emulsifier-containing water to the desired concentration. Discs of cotton leaves (Gossypium hirsutum) which are infested by all stages of the whitefly (Bemisia tabaci) are sprayed with an active compound preparation of the desired concentration. After the desired period of time, the activity in % is determined. 100% means that all the whiteflies have been killed; 0% means that none of the whiteflies have been killed.

In the case of `CCOC(=O)OC1=C(c2c(C)cc(C)cc2C)C(=O)C2(CCC(COC)CC2)N1` (stereo not shown) [I-b-3], the “effect in % (beetle larvae killed)” value in the test on Phaedon cochleariae was 100%. Besides, in the test with Spodoptera frugiperda (500 g/ha, 7dat), the “% Activity SPODFR” value amounted to 100%. In addition, the “effect in % (caterpillars killed)” value in the test on Spodoptera frugiperda (application rate 500 g/ha, after 7 days, corn leaf discs) came to 100%. The “effect in % (aphids killed)” value in the test on Myzus persicae came to 90%. The “% Activity TETRUR” value with Tetranychus urticae (20 g/ha, 5dat, OP-resistant) worked out at 80%. The “effect in % (spider mites killed)” value in the test with Tetranychus urticae (application rate 100 g/ha, after 5 days, bean leaf discs) amounted to 90%. Also, the “efficacy in % (deposition of fertile eggs)” value in the test with Boophilus microplus is recorded as 100%. Also, the “kill in % (larvae)” value with Lucilia cuprina larvae came out at 90%. The “% Activity LIRITRI” value in the test with Liriomyza trifolii is recorded as 80%. For the same compound, in the test with Bemisia tabaci, the “% Activity BEMITA” value was found to be 72%.
